Test results reported in patent US12109266B2, “Modulating gabarap to modulate immunogenic cell death” (Dana-Farber Cancer Institute, Inc., priority 2020, dated 2024).
Entries after “also recorded” stand apart in the source; their conditions may differ.

Legend:
cGAS/STING pathway = test: Western blot of cGAS/STING pathway; format: cell-based, human; conditions: AMO1; ADU-S100 10 uM with BTZ 5 nM
Method: Cell lysis was performed in RIPA buffer (Boston Bio Products) supplemented with Halt protease and phosphatase inhibitor cocktail (ThermoFisher Scientific). SDS-PAGE was performed on NuPage Bis-Tris gels (ThermoFisher Scientific) using MOPS or MES running buffer. Gels were dry transferred onto 0.45 μm nitrocellulose membranes using the iBlot® Dry Blotting System (ThermoFisher Scientific). The following Abs were purchased from Cell Signaling Technology: EIF2A (#5324), p-EIF2A (#3398), ATF4 (#11815), CHOP (2895), CALR (#12238), cGAS (#15102), TBK1 (#3504), pTBK1 (#5483), pIRF3 (#29047), STING (#13647). GAPDH (#2118) and B-ACTIN (#4970) were used as loading controls.

5TGM1 MM cells = test: Cell Counting Kit-8 (CCK-8) proliferation assay; format: cell-based, murine; conditions: ADU-S100 0-5 uM, 72 hr
Method: Cell viability was evaluated by Cell Counting Kit-8 (CCK-8) assay (Dojindo Molecular Technologies).

5TGM1 tumors [1] = test: IHC CD3 staining of tumors; format: in vivo, mouse; conditions: tumors retrieved after one administration of the drugs
Method: (§1) NOD/SCID and C57BL/KaLwRijHsd mice were subcutaneously (sc) injected with 1×10^6 5TGM1 either WT or Calr^KO cells in PBS. When tumor became measurable, mice were randomized to receive either PBS or BTZ administered intra peritoneally (i.p.) 0.5 mg/kg twice/week for 2 weeks. Tumor sizes were measured as previously described (46), and mice were sacrificed when tumors reached 2 cm in diameter or ulceration or major compromise in quality of life. A parallel experiment was performed to allow for tumor harvesting after two injections ip of BTZ for RNA-seq analysis, as detailed below. For BTZ and STING agonist combination studies, C57BL/KaLwRijHsd (n=5/group) and SCID/NOD (n=6/group) mice bearing 5TGM1 WT and C57BL/KaLwRijHsd mice (n=5/group) bearing 5TGM1 Sting^KO tumors were randomized to receive: PBS, BTZ (0.375 mg/kg twice a week for 2 weeks, i.p.), ADU-S100 (100 μg) administered in the peritumoral area (day 1 and 2), or a combination. Tumor sizes were measured as described above. A parallel experiment in C57BL/KaLwRijHsd mice was performed to allow for tumor harvesting after one administration of either BTZ or ADU-S100. Tumors were fixed in 10% formalin for 24 h, and then maintained in 70% ethanol prior to paraffin embedding and processing for IHC to detect CD3 (#nb600 Ab, Novus Bio).

5TGM1 tumors [2] = test: In vivo tumor growth analysis; set-up: species or system mouse
Method: (§2) 6-week old female immunodeficient NOD.CB17-Prkdcscid/NCrCrl (NOD/SCID) mice (Charles River) and immunocompetent C57BL/KaLwRijHsd (Envigo) mice were housed in an animal facility at the Dana-Farber Cancer Institute (DFCI). All experiments were performed after approval by the Animal Ethics Committee of the DFCI and performed using institutional guidelines.
To assess the effect of BTZ in the absence of an immune system, NOD/SCID mice were subcutaneously injected with 1×10^6 5TGM1 WT cells in a 1:1 ratio with Matrigel® (Corning); to assess BTZ in an immunocompetent host, C57BL/KaLwRijHsd mice were injected with 1×10^6 5TGM1 either WT or calrKO in the same ratio with Matrigel®. When tumor became measurable, mice (5/group) were randomized to receive either PBS or BTZ administered intra peritoneally (i.p.) 0.5 mg/kg twice/week for 2 weeks. Tumor sizes were measured and mice were sacrificed when tumors reached 2 cm in diameter or ulceration or major compromise in quality of life. A parallel experiment was performed to allow for tumor harvesting after two injections i.p. of BTZ for RNA-seq analysis, as detailed below.
as §2, with “(NOD/SCID)” for “(NOD/SCID) mice”, “in the” for “in an”, “at DFCI.” for “at the Dana-Farber Cancer Institute (DFCI).”
as §1

[3] = tested on: type-I IFN response in AMO1 and NCI-H929 MM cells; test: Type-I IFN response in MM cells (RNA-seq, qRT-PCR, ELISA); format: cell-based, human; conditions: H929; STING agonist 10 uM with BTZ 5 nM
Method: Total RNA from multiple myeloma cells was prepared with TRIzol™ (ThermoFisher Scientific) and RNA Clean and Concentrator™-5 kit (Zymo Research) following the product instructions. RNA integrity and quantity was assessed by NanoDrop Spectrophotometer (ThermoFisher Scientific). For analysis of mRNA expression, oligo-dT-primed cDNA was obtained using the High Capacity cDNA Reverse Transcription Kit (ThermoFisher Scientific), and used as template to quantify: human and murine IFNA1 (Hs03044218_g1, Mm03030145_gH), human and murine IFNB1 (Hs01077958_s1, Mm00439552_s1), human and murine CXCL9 (Hs00171065_ml, Mm00434946_ml), and human and murine GAPDH (Hs02786624_g1, Mm99999915_g1). Analysis was determined by RT-PCR using TaqMan®Fast Universal PCR Master Mix on a 7500 Fast Real-Time PCR System (ThermoFisher Scientific). Comparative RT-PCR was performed in triplicate. Relative expression was calculated using the comparative […] (Ct) method.
AMO1^WT and STING^KO cells were either untreated or treated with BTZ for 24 h. Supernatant was collected, and secretion of CXCL9 chemokines was analyzed by MIG (CXCL9) Human Instant ELISA™ Kit (#BMS285INST, ThermoFisher Scientific).
AMO1 WT and STING^KO were cultured for 16 h in the presence of absence of BTZ (5 nM). RNA was extracted as previously described and submitted to NovaSeq RNAseq analysis followed by VIPER NGS Analysis pipeline (Cornwell et al. (2018) BMC Bioinformatics; 19(1):135). Lists of DEGs were applied to the GSEA software. RNAseq data have been submitted to Gene Expression Omnibus (accession number: GSE171837).

MM cell lines = conditions: different MM cell lines; cited from earlier work
HR-SMM = conditions: cited from earlier work
[4] = tested on: AMO1, H929 and KMS11 MM cells; test: Phagocytosis assay of MM cells by monocyte-derived DCs; format: cell-based, human; conditions: AMO1 GABARAP^KO after BTZ, rCALR 3 ug/10^6 cells
Method: Mo-DCs were generated from CD14+ peripheral blood monocytes were positively selected using magnetic beads (Miltenyi Biotec) and cultured for 6 days in mo-DC differentiation medium containing GM-CSF and IL-4 (130-094-812; Miltenyi Biotec) to generate Mo-DCs. AMO1, KMS11 and H929 cells lines, as well as patient MM cells, were stained with CellTrace™ Far Red (ThermoFisher Scientific), cultured with or without BTZ (for 16 h), and then incubated in 48-well plates for 4 h at 1:1 ratio with CellTrace™ CFSE stained Mo-DCs. Cells were then collected, and phagocytosis analysis was performed by flow cytometry and confocal microscopy. Analagous phagocytosis experiments was performed using 5TGM1 murine MM and immature murine DC line JAWSII.
Collected cells were analyzed using the BD LRSFortessa™ X-20 flow cytometer. Mo-DCs that engulfed MM cells were CFSE and FAR-RED double positive. Fold increase in percentage of double positive DCs after co-culture with BTZ treated vs untreated MM cells was compared.
Mo-DCs were generated from CD14+ peripheral blood monocytes from healthy donors, positively selected using magnetic beads (Miltenyi Biotec), cultured for 6 days in mo-DC differentiation medium containing GM-CSF and IL-4 (130-094-812; Miltenyi Biotec). AMO1 and NCI-H929 cells lines, as well as patient MM cells, were stained with CellTrace™ Far Red (ThermoFisher Scientific), cultured with or without BTZ for 16 h, and then incubated in 48-well plates for 4 h at 1:1 ratio with CellTrace™ CFSE stained Mo-DCs. Cells were then collected, and phagocytosis analysis was performed by flow cytometry and confocal microscopy. Analagous phagocytosis experiments were performed using 5TGM1 murine multiple myeloma and JAWSII cell line that was used as source of immature murine DCs.
Flow cytometry-based assay: Collected cells were analyzed using the BD LRSFortessa X-20 flow cytometer. Mo-DCs that engulfed MM cells were CFSE and FAR-RED double positive. Fold increase in percentage of double positive DCs after co-culture with BTZ treated vs untreated MM cells was compared.

Q: Which “phosphorylated TBK1” value (cGAS/STING pathway) does the source give for `Nc1ncnc2c1ncn2[C@@H]1O[C@@H]2COP(=O)([S-])O[C@@H]3[C@H](O)[C@@H](COP([O-])(=S)O[C@H]2[C@H]1O)O[C@H]3n1cnc2c(N)ncnc21.[Na+].[Na+]` (some centres unmarked) [ADU-S100] here?
A: higher levels of phosphorylated TBK1 kinase

Q: And the “direct killing of MM cells (live cells vs untreated)” value (5TGM1 MM cells)?
A: sensitive to a direct killing

Q: And the “CD3+ T cell infiltration within tumors (IHC)” value (5TGM1 tumors [1])?
A: increased CD3+ T cell infiltration within tumors

Q: And the anti-tumor activity (5TGM1 tumors [2]; 5TGM1 Sting^KO tumors in immunocompetent mice)?
A: still retained a partial anti-multiple myeloma activity

Q: What about the anti-tumor effects (5TGM1 tumors [2]; 5TGM1 WT in immunodeficient NOD/SCID mice, BTZ 0.375 mg/kg, ADU-S100 100 ug day 1 and 2) of the same molecule?
A: abrogated the anti-tumor effects

Q: What about the “transcription of IFNA1 and IFNB1” value [3] of the same molecule?
A: increased transcription of IFNA1 and IFNB1

Q: For `CC(C)C[C@H](NC(=O)[C@H](CCc1ccccc1)NC(=O)CN1CCOCC1)C(=O)N[C@@H](Cc1ccccc1)C(=O)N[C@@H](CC(C)C)C(=O)[C@@]1(C)CO1` [carfilzomib], which CRT exposure (MM cell lines) is on record?
A: shown to expose CRT in different MM cell lines

Q: With `Nc1cccc2c1CN(C1CCC(=O)NC1=O)C2=O` (centres unmarked) [lenalidomide] as the molecule, how does the “progression of HR-SMM” value (HR-SMM; lenalidomide alone) read?
A: delay progressions of HR-SMM

Q: And the “treatment discontinuation and secondary cancers” value (HR-SMM; lenalidomide cohort)?
A: high rate of treatment discontinuation and secondary cancers

B1: rCRT: recombinant calreticulin purchased from Sigma (SRP8001) (protein)
chain: EPAVYFKEQFLDGDGWTSRWIESKHKSDFGKFVLSSGKFYGDEEKDKGLQTSQDARFYALSASFEPFSNKGQTLVVQFTVKHEQNIDCGGGYVKLFPNSLDQTDMHGDSEYNIMFGPDICGPGTKKVHVIFNYKGKNVLINKDIRCKDDEFTHLYTLIVRPDNTYEVKIDNSQVESGSLEDDWDFLPPKKIKDPDASKPEDWDERAKIDDPTDSKPEDWDKPEHIPDPDAKKPEDWDEEMDGEWEPPVIQNPEYKGEWKPRQIDNPDYKGTWIHPEIDNPEYSPDPSIYAYDNFGVLGLDLWQVKSGTIFDNFLITNDEAYAEEFGNETWGVTKAAEKQMKDKQDEEQRLKEEEEDKKRKEEEEAEDKEDDEDKDEDEEDEEDKEEDEEEDVPGQAKDEL
Q: What does the source list for B1?
A: phagocytosis of MM cells by DCs with recombinant calreticulin add-back [4]: confirmed the on-target effect GABARAP^KO; also recorded: restored phagocytosis of MM cells after BTZ; phagocytosis of MM cells by DCs with recombinant calreticulin add-back ([4]; listed as recombinant CRT): increases the immune response against the cancer cells
